Legend:
Experiment in all cases: NCI-60 screening, one-dose (10 µM) and five-dose, SRB
[1] = system: OVCAR-3; format: cell-based; settings: Homo sapiens; 10 μM; OVCAR-3, Ovarian Cancer; read-out: Growth percentage
[2] = system: TK-10; format: cell-based, human; settings: Homo sapiens; 10 μM; TK-10, Renal Cancer; read-out: Growth percentage
[3] = system: KM12; format: cell-based, human; settings: Homo sapiens, KM12, 10 μM; KM12, Colon Cancer; read-out: Growth percentage
[4] = system: SK-MEL-28; format: cell-based, human; settings: Homo sapiens; 10 μM; SK-MEL-28, Melanoma; read-out: Growth percentage
[5] = system: BT-549; format: cell-based; settings: Homo sapiens; 10 μM; BT-549, Breast Cancer; read-out: Growth percentage
[6] = system: OVCAR-5; format: cell-based, human; settings: 10 μM; OVCAR-5, Ovarian Cancer
[7] = system: EKVX; format: cell-based, human; settings: Homo sapiens, 10 μM, Non-Small-Cell Lung Cancer, read-out: Growth percentage
[8] = system: SF-268; format: cell-based, human; settings: Homo sapiens; 10 μM; SF-268, CNS Cancer; read-out: Growth percentage
[9] = system: LOX IMVI; format: cell-based, human; settings: Homo sapiens, 10 μM, Melanoma, read-out: Growth percentage
[10] = system: HCC-2998; format: cell-based, human; settings: Homo sapiens; 10 μM; HCC-2998, Colon Cancer; read-out: Growth percentage
[11] = system: DU-145; format: cell-based, human; settings: Homo sapiens; 10 μM; DU-145, Prostate Cancer; read-out: Growth percentage
[12] = system: SF-539; format: cell-based, human; settings: Homo sapiens, SF-539, 10 μM; SF-539, CNS Cancer; read-out: Growth percentage
[13] = system: NCI-H522; format: cell-based, human; settings: Homo sapiens; 10 μM; NCI-H522, Non-Small-Cell Lung Cancer; read-out: Growth percentage
[14] = system: SK-MEL-5; format: cell-based, human; settings: Homo sapiens; 10 μM; SK-MEL-5, Melanoma; read-out: Growth percentage
[15] = system: MDA-MB231/ATCC; format: cell-based; settings: 10 μM; MDA-MB231/ATCC, Breast Cancer
[16] = system: SF-295; format: cell-based, human; settings: Homo sapiens; 10 μM; SF-295, CNS Cancer; read-out: Growth percentage
[17] = system: NCI-H226; format: cell-based, human; settings: Homo sapiens; 10 μM; NCI-H226, Non-Small-Cell Lung Cancer; read-out: Growth percentage
[18] = system: OVCAR-4; format: cell-based, human; settings: Homo sapiens; 10 μM; OVCAR-4, Ovarian Cancer; read-out: Growth percentage
[19] = system: A498; format: cell-based; settings: Homo sapiens, A498, 10 μM; A498, Renal Cancer; read-out: Growth percentage
[20] = system: MDA-MB-435; format: cell-based; settings: Homo sapiens, MDA-MB-435, read-out: Growth percentage, 10 μM; MDA-MB-435, Melanoma
[21] = system: SK-MEL-2; format: cell-based, human; settings: Homo sapiens; 10 μM; SK-MEL-2, Melanoma; read-out: Growth percentage
[22] = system: CAKI-1; format: cell-based; settings: Homo sapiens, CAKI-1, read-out: Growth percentage
[23] = system: COLO 205; format: cell-based, human; settings: Homo sapiens; 10 μM; COLO 205, Colon Cancer; read-out: Growth percentage
[24] = system: SNB-75; format: cell-based, human; settings: Homo sapiens; 10 μM; SNB-75, CNS Cancer; read-out: Growth percentage
[25] = system: HS 578T; format: cell-based, human; settings: Homo sapiens, 10 μM, Breast Cancer, read-out: Growth percentage
[26] = system: SNB-19; format: cell-based; settings: Homo sapiens, SNB-19, read-out: Growth percentage
[27] = system: HCT-15; format: cell-based, human; settings: Homo sapiens; 10 μM; HCT-15, Colon Cancer; read-out: Growth percentage
[28] = system: K-562; format: cell-based, human; settings: Homo sapiens, K562, 10 μM; K-562, Leukemia; read-out: Growth percentage
[29] = system: CCRF-CEM; format: cell-based, human; settings: Homo sapiens, 10 μM, Leukemia, read-out: Growth percentage
[30] = system: HOP-92; format: cell-based, human; settings: Homo sapiens; 10 μM; HOP-92, Non-Small-Cell Lung Cancer; read-out: Growth percentage
[31] = system: ACHN; format: cell-based, human; settings: Homo sapiens, 10 μM, Renal Cancer, read-out: Growth percentage

## Cc1nc(SCC(=O)N2CCN(c3cc4c(cc3F)c(=O)c(C(=O)O)cn4C3CC3)CC2)sc1C(=O)/C=C/c1ccc(Cl)cc1 [Compound 4c, (E)-7-(4-(2-((5-(3-(4-Chlorophenyl)acryloyl)-4-methylthiazol-2-yl)thio)acetyl)piperazin-1-yl)-1-cyclopropyl-6-fluoro-4-oxo-1,4-dihydroquinoline-3-carboxylic Acid]
[1]
  activity at 10 µM: 188%
[2]
  activity at 10 µM: 106%
[3]
  activity at 10 µM: 104%
[4]
  activity at 10 µM: 100%
[5]
  activity at 10 µM: 85.9%
[6]
  Growth percentage: 100.3%
[7]
  activity at 10 µM: 103%
[8]
  activity at 10 µM: 180%
[9]
  activity at 10 µM: 80.9%
[10]
  activity at 10 µM: 104%
[11]
  activity at 10 µM: 178%
[12]
  activity at 10 µM: 97.7%
[13]
  activity at 10 µM: 95.9%
[14]
  activity at 10 µM: 100%
[15]
  Growth percentage: 100.1%
[16]
  activity at 10 µM: 102%
[17]
  activity at 10 µM: 107%
[18]
  activity at 10 µM: 107%
[19]
  activity at 10 µM: 119%
[20]
  activity at 10 µM: 102%
[21]
  activity at 10 µM: 99.4%
[22]
  activity at 10 µM: 100%
[23]
  activity at 10 µM: 107%
[24]
  activity at 10 µM: 95.6%
[25]
  activity at 10 µM: 105%
[26]
  activity at 10 µM: 100%
[27]
  activity at 10 µM: 102%
[28]
  activity at 10 µM: 93.1%
[29]
  activity at 10 µM: 102%
[30]
  activity at 10 µM: 119%
[31]
  activity at 10 µM: 96.4%

— PMC12655637, “Design, Synthesis, and Mechanistic Study of Novel Ciprofloxacin/Thiazole Chalcone Hybrids as Potential Anticancer Agents” (Pharmaceuticals, 2025)
